Article PMC11943016, “TBG096 Ameliorates Memory Deficiency in AD Mouse Model via Promoting Neurogenesis and Regulation of Hsc70/HK2/PKM2/LAMP2A Signaling Pathway” (International Journal of Molecular Sciences, 2025)
Like-named read-outs stand apart in the source and are kept apart here.

Key:
[1] = test system: Wnt gene family (Wnt10b, Wnt5a, and Wnt1); experiment: Transcriptome sequencing and qRT-PCR of brain samples of HFD-induced AD mice; format: in vivo; conditions: GSEA-GO, qRT-PCR confirmed Wnt10b and Wnt5a
Description: Total RNA was extracted and quantified from 50 mg of the cerebral cortex using TRIzol reagent (Invitrogen, Carlsbad, CA, USA) and NanoDrop (Thermo Fisher Scientific, Waltham, MA, USA), respectively. Subsequently, 2.5 µg of RNA from each sample was reverse-transcribed using a HiFi-MMLV cDNA kit (Cowin Biotechnology Company, Beijing, China). Transcripts were quantified by PCR analysis performed with a CFX 96 Touch (Bio-Rad, Hercules, CA, USA) and SYBR Premixed EX Taq (Takara, Otsu, Japan). PCR was performed under the following conditions: 95 °C for 2 min, followed by 40 cycles, 94 °C for 15 s, 60 °C for 25 s, and 72 °C for 10 s. All results were normalized to the level of 18S RNA, and the relative mRNA transcription levels were estimated by 2^−ΔΔCT. The number of animal samples in each group was five, and all samples were run in triplicate, and their average values were calculated. The mouse primers of Wnt10b (NM_011718.2), Wnt5a (NM_001256224.2), and 18S RNA (NR_003278.3) were synthesized by Sangon Biotech Co., Ltd. (Shanghai, China), and their sequences are as follows: Wnt10b-sense: 5′-[…]-3′; antisense: 5′-[…]-3′. Wnt5a-sense: 5′-[…]-3′; antisense: 5′-[…]-3′. 18S-sense: 5′-[…]-3; antisense: 5′-[…]-3′.
After extracting total RNA (5 µg) from cerebral cortex samples, mRNA was purified using Dynabeads Oligo(dT) (Thermo Fisher, Waltham, MA, USA), involving two purification steps. […]

[2] = Pharmacokinetic analysis of plasma in SD rats; format: in vivo; conditions: female, Sprague-Dawley, rat; for half-life: 14 mg/kg
Description: In the pharmacokinetic analysis, a total of 23 female SD rats aged 8 weeks from Zhejiang Academy of Medical Sciences (Hangzhou, China) (permit number: ZJU20240191) were used. A total of 15 rats were randomly divided into the following groups: (i) control group, (ii) TBG096 (14 mg/kg) oral administration group, and (iii) TBG096 (14 mg/kg) intravenous administration group. TBG096 was administered orally (dissolved in soybean oil) or intravenously (dissolved in Milli-Q water containing 2% Tween 80 and 5% ethanol) at 14 mg/kg after 12 h of fasting. Then, the blood from the posterior ocular venous plexus of rats was taken at 5, 15, 30, 60, 90, 120, 180, and 240 min after administration. A total of eight rats were randomly divided into two groups for taking brain samples: (i) control group and (ii) TBG096 (14 mg/kg) oral administration group.
The collected blood was placed in a centrifuge tube (containing 20 µL heparin sodium solution) and centrifuged at 3000 rpm for 10 min to obtain a supernatant (plasma). Brain samples were collected after the oral administration of 14 mg/kg TBG096 and heart perfusion with PBS. Then, 10 µL of 10% formic acid and 10 µL of internal standard (10 ng/µL) were added to 200 µL of plasma (compound 2 was used as internal standard) or 0.2 g of brain sample (compound 4 was used as internal standard) and vortexed for 10 s and then left at −80 °C overnight. Next, 600 µL or 3 mL of extraction solvent (isopropanol) was added to plasma or brain samples, vortexed for 5 min, left at −30 °C for 2 h, and then centrifuged at 12,000 rpm for 15 min. Next, the upper organic phase was transferred to another tube, centrifuged, and concentrated to dryness. The residue was dissolved in 100 µL of mobile phase, vortexed for 0.5 min, and centrifuged at 12,000 rpm for 3 min, and the supernatant was then prepared for HPLC analysis (Supersil Phenyl 5 µm (4.6 × 200 mm), elution with MeCN/H2O containing 0.1% formic acid (plasma samples: 57% MeCN/H2O, brain samples: 56% MeCN/H2O) for 30 min, flow rate: 1 mL/min, sample size: 20 µL, detected at 284 nm) and HR ESI-TOF-MS analysis.

What does the source list for `O=C(SCCCCCCSCCCC(F)(F)F)c1cccc(O)c1O` [TBG096]?
expression of the Wnt gene family (Wnt10b, Wnt5a, and Wnt1) [1]: enhancing the expression; bioavailability ([2]; 14 mg/kg oral vs i.v., rats, read-out: absolute (oral) bioavailability): 36%; half-life ([2]; iv, i.v. 14 mg/kg, rats, read-out: T1/2z): 44.4 min; AUC(0-inf) ([2]; iv, i.v. 14 mg/kg, rats): 2520 ng·h/mL; AUC(0-t) ([2]; iv, i.v. 14 mg/kg, rats): 2470 ng·h/mL; Cmax ([2]; iv, i.v. 14 mg/kg, rats): 4700 ng/mL; Tmax ([2]; iv, i.v. 14 mg/kg, rats): 5 min; AUC(0-inf) ([2]; oral (i.g.) 14 mg/kg, rats): 905 ng·h/mL; AUC(0-t) ([2]; oral (i.g.) 14 mg/kg, rats): 707 ng·h/mL; Cmax ([2]; oral (i.g.) 14 mg/kg, rats): 700 ng/mL; Tmax ([2]; oral (i.g.) 14 mg/kg, rats): 15 min; half-life ([2]; po, oral (i.g.) 14 mg/kg, rats, read-out: T1/2z (oral elimination half-life)): 111 min; half-life ([2]; po, oral, as restated in Discussion, read-out: half-life (converted)): 111 min
